Assay results published in patent publication EP0946548B1, “NOVEL HETEROCYCLIC SUBSTITUTED PYRROLIDINE AMIDE DERIVATIVES” (Aventis Pharmaceuticals Inc., priority 1996, dated 1998).
Where a name gives a salt, the structure may show the parent alone.

Columns and labels:
NK1 receptor = biological target: T1, NK1 receptor (Cavia porcellus, UniProt P30547); experiment: Antagonism of iodinated tachykinin binding to NK1 receptor (125I-Bolton Hunter Lys-3 labeled substance P); conditions: guinea pig lung membranes; mean of several experiments
T1 construct: evaluated in guinea pig lungs (Keystone Biologicals, Cleveland, OH); tissue Keystone Biologicals, Cleveland, OH; host or cells: guinea pig lung membranes
Protocol: (§1) One skilled in the art can determine the NK1 receptor and NK2 receptor affinity in vitro as follows. The NK1 receptor affinity of tachykinin antagonists is evaluated in guinea pig lungs (Keystone Biologicals, Cleveland, OH) and affinity for the NK2 receptor is evaluated in HSKR-1 cells (which are mouse 3T3 fibroblasts expressing the human jejunal NK2 receptor). Tissues or cells are homogenized with a Polytron in 15 volumes of 50 mM Tris-HCl buffer (pH 7.4, 4°C) and centrifuged. The pellet is resuspended in Tris-HCl buffer and is centrifuged; the pellet is washed twice by resuspension. The final pellet is resuspended at a concentration of 40 mg/ml for tissues and 20 mg/ml for cells in incubation buffer and remains at room temperature for at least 15 min prior to use. Receptor binding is initiated by addition of 250 ul membrane preparation in duplicate to 0.1 nM of the following radioligands: ^125I-Bolton Hunter Lys-3 labeled substance P and ^125iodohistidyl-1-neurokinin A; in a final volume of 500 ul of buffer containing 50 mM Tris-HCl (pH 7.4 at room temperature), 0.1% bovine serum albumin, 2 mM mangenese chloride, 40 ug/ml bacitracin, 4 µg/ml leupeptin and chymostatin, 10 µM thiorphan and various doses of the putative tachykinin antagonists. […] Filter bound radioactivity is quantitated in a gamma counter. Nonspecific binding is defined as binding in the presence of 1 µM substance P or neurokinin A. Specific binding is calculated by subtracting nonspecific binding from total binding. Competition of iodinated SP or NKA binding by test compounds or standards is expressed as a percentage of this maximum binding. […]
(§2) Tachykinin receptor binding (IC50 values) for representative compounds of the present invention are found in Table 1. Specifically, NK1 and NK2 receptor binding values were determined by the method of present Example A. These values represent the mean of several experiments. […]

[1] = biological target: T2, human jejunal NK2 receptor (Homo sapiens, UniProt P21452); experiment: Antagonism of iodinated tachykinin binding to NK2 receptor (125iodohistidyl-1-neurokinin A) in HSKR-1 cells; conditions: HSKR-1 cells (mouse 3T3 fibroblasts expressing the human jejunal NK2 receptor); mean of several experiments
T2 construct: expressed in transfected cells; host or cells: HSKR-1 cells (mouse 3T3 fibroblasts)
T2 sequence (P21452 1-398): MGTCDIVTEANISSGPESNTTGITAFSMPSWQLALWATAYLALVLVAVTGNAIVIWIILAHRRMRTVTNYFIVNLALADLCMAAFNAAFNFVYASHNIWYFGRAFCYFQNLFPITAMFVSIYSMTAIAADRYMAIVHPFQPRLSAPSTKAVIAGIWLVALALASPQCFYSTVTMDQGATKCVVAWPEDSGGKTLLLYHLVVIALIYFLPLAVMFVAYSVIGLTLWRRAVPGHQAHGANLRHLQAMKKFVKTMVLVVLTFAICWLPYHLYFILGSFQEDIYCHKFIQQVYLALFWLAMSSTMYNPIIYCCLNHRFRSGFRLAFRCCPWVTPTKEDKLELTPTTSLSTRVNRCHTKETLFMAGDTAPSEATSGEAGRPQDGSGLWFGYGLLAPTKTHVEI
Protocol: as §1, §2

[2] = Metabolic stability: disappearance of test compound in guinea pig liver S9 supernatant; format: in vitro ADME; conditions: initial concentration 10µM, 37°C
Protocol: (§3) One skilled in the art can determine the metabolic stability for the compounds of the present invention by determining the rate of disappearance of the test comopund in vitro in liver extracts. Metabolic stability is inversely related to the rate of metabolism which can be evaluated by determining the rate of disappearance of the test compounds during the initial linear phase of this assay.
(§4) This method is carried out using either S9 or S10 liver supernatant obtained from either guinea pig or human liver. Guinea pig liver S9 can be purchased from Vitro Technologies, Baltimore, Md and human liver S9 can be purchased from IIAM, Eaton Pa. Both guinea pig and human S10 supernatant can be prepared as follows: Combine weighed liver (fresh or stored at -80°C until use) and 1.15% aqueous potassium chloride solution (10-15 mL) and homogenize using a PCU Poltron from Kinematics of Switzerland or equivalent. Combine the homogenate with 1.15% aqueous potassium chloride solution, sufficient so that 3 mL of solution (total) is used per […] of liver, and mix. Store the above homogenate on ice at all times prior to use and at -80°C for long term storage.
(§5) Prepare a stock solution of each test compound in methanol, such that 0.1 mL of the stock solution when spiked into 16 mL of incubation mixture yields an initial concentration of 10µM of the test compound. Using this method the methanol content of the final incubation mixture will not exceed 1%.
(§6) Prepare the incubation mixture by combining in an incubation beaker S9 or S10 supernatant (4 mL); an aqueous solution containing 1.1 mM NADP, […] (4 units/2 mL)(0.32 mL); and an aqueous 0.1 M dipotassium monohydrogen phosphate solution (7.58 mL). Incubate the test compound by adding 0.1 mL of the stock solution of test compound to an incubation mixture, placed in a shaking water bath at 37°C.
(§7) To determine the rate of disappearance of test compounds in this assay, remove triplicate aliquots (0.5 mL) from the incubation beaker at 1, 3, 5, 10, 15, 30, and 60 minutes. Freeze all aliquots in a hexane/dry-ice slurry to instantly deactivate the enzymes. Store at -70°C until assayed. The concentration of test compound in each aliquot is determined by HPLC after preparation and as compared to a standard concentration of test compound, such preparations and determinations are well known and appreciated in the art. The rate of disappearance can be determined from the slope of the initial linear phase of this assay by graphing the change in concentration of test compound vs. time.
(§8) Calibration standards for Compound A were prepared as follows: dissolve 10 mg of Compound A (free base) in methanol (10 mL) to give a 1 mg/mL stock solution. Use acetonitrile to dilute 1 mL of stock solution to 10 mL to give a 100 µg/mL spiking standard and serially dilute the 100µg/mL solution with acetonitrile to give spiking standards having concentrations of 50, 25, 10, 5, 2.5, and 1.0 µg/mL. Calibration standards having concentrations of 10,000; 5,000; 2,500; 1,000; 500; 250; and 100 ng/mL are prepared in duplicated by adding 20 µL of each spiking standards to 0.2 mL of control S9 supernatant. Blanks and samples each receive 20µL of acetonitrile. Calibration standards and aliquots from that assay of compound A were prepared and evaluated as follows: charge a purple sulfonic acid solid phase extraction cartridge (Varian Inc., Harbor City, Ca.) with methanol (1 mL) and an aqueous 0.5% monochloroacetic acid solution (1 mL). Dilute the 0.2 mL of calibration standard or aliquot from the incubation with aqueous 5% acetonitrile (0.5 mL) and add to the charged cartridge. Pull the sample through the cartridge using vacuum, rinse with aqueous 0.5% monochloroacetic acid solution (1 mL), aqueous 50% acetonitrile solution (50 mM potassium hydroxide) (1 mL). Elute into HPLC vial using 60% methanol, 38% water, 1% acetic acid, 1% triethylamine (0.4 mL). […]

[3] = Metabolic stability: disappearance of test compound in human liver S9 supernatant; format: in vitro ADME; conditions: initial concentration 10µM, 37°C
Protocol: as §3, §4, §5, §6, §7, §8

T1 sequence (P30547 whole entry): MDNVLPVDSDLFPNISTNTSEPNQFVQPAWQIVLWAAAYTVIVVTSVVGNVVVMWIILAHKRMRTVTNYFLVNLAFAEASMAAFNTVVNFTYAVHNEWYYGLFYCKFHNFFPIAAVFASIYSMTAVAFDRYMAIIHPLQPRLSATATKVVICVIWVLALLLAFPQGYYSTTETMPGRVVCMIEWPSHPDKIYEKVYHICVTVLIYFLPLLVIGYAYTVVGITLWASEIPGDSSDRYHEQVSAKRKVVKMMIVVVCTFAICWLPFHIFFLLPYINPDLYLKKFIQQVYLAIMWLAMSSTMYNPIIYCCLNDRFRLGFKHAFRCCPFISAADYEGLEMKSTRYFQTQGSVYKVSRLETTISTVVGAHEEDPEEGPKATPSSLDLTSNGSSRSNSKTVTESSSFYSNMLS

SMILES | IC50 (NK1 receptor) [nM] | IC50 [1] [nM] | Metabolic Stability in Guinea Pig Liver S9, concentration ([2]; Time 1 min) [µg/mL] | Metabolic Stability in Guinea Pig Liver S9, concentration ([2]; Time 3 min) [µg/mL] | Metabolic Stability in Guinea Pig Liver S9, concentration ([2]; Time 5 min) [µg/mL] | Metabolic Stability in Guinea Pig Liver S9, concentration ([2]; Time 10 min) [µg/mL] | Metabolic Stability in Guinea Pig Liver S9, concentration ([2]; Time 15 min) [µg/mL] | Metabolic Stability in Guinea Pig Liver S9, concentration ([2]; Time 30 min) [µg/mL] | Metabolic Stability in Guinea Pig Liver S9, concentration ([2]; Time 60 min) [µg/mL] | Metabolic Stability in Human Liver S9, concentration ([3]; Time 1 min) [µg/mL] | Metabolic Stability in Human Liver S9, concentration ([3]; Time 3 min) [µg/mL] | Metabolic Stability in Human Liver S9, concentration ([3]; Time 5 min) [µg/mL] | Metabolic Stability in Human Liver S9, concentration ([3]; Time 10 min) [µg/mL] | Metabolic Stability in Human Liver S9, concentration ([3]; Time 15 min) [µg/mL] | Metabolic Stability in Human Liver S9, concentration ([3]; Time 30 min) [µg/mL] | Metabolic Stability in Human Liver S9, concentration ([3]; Time 60 min) [µg/mL]
COc1cc(C(=O)N2CCC(CCN3CCC(C(N)=O)(c4ccccc4)CC3)(c3ccc(Cl)c(Cl)c3)C2)cc(OC)c1OC.Cl (single isomer, unassigned; (+)) [Compound C, (+)-1-(2-(3-(3,4-dichloro-phenyl)-1-(3,4,5-trimethoxy-benzoyl)-pyrrolidin-3-yl)-ethyl)-4-phenyl-piperidine-4-carboxylic acid amide hydrochloride, reference compound] | 3.04 | 8.17 | 6.3 | 6.0 | 5.3 | 4.8 | 4.0 | 3.8 | 3.5 | 6.2 | 5.6 | 5.9 | 5.2 | 4.5 | 3.2 | 2.5
COc1ccc(-n2cnnn2)cc1C(=O)N1CC[C@](CCN2CCC(C(N)=O)(c3ccccc3)CC2)(c2ccc(Cl)c(Cl)c2)C1 [Compound A, (R)-1-(2-methoxy-5-(1H-tetrazol-1-yl)benzoyl)-3-(2-(4-phenyl-4-carboxamidopiperidin-1-yl)ethyl)-3-(3,4-dichlorophenyl)pyrrolidine hydrochloric acid salt] | 2.79 | 16.3 | 6.1 | 6.6 | 6.3 | 6.1 | 6.1 | 6.3 | 6.9 | 6.6 | 6.5 | 6.6 | 6.7 | 6.6 | 6.8 | 6.9
COc1ccc(-n2cnnn2)cc1C(=O)N1CC[C@](CCN2CCC(C(N)=O)(c3cccnc3)CC2)(c2ccc(Cl)c(Cl)c2)C1 [Compound B, (R)-1-(2-methoxy-5-(1H-tetrazol-1-yl)benzoyl)-3-(2-(4-(pyrid-3-yl)-4-carboxamidopiperidin-1-yl)ethyl)-3-(3,4-dichlorophenyl)pyrrolidine hydrochloric acid salt] | 3.15 | 232 | 6.2 | 6.4 | 6.4 | 6.3 | 6.3 | 6.3 | 6.2 | 6.4 | 6.6 | 6.1 | 6.1 | 5.7 | 5.3 | 4.4
